# Laboratory results: US10221129B2, “Inhibitors of human immunodeficiency virus replication” (ViiV HEALTHCARE UK (NO.5) LIMITED, priority 2015, dated 2019)
# Tests used:
# [1] = Compound cytotoxicity, XTT-based colorimetric assay; type: cell-based; conditions: human, uninfected MT2 cells, day 4, XTT
# Description: Compound cytotoxicity and the corresponding CC50 values were determined using the same protocol as described in the antiviral assay except that uninfected cells were used. Cytotoxicity was assessed on day 4 in uninfected MT2 cells by using a XTT (2,3-bis[2-Methoxy-4-nitro-5-sulfophenyl]-2H-tetrazolium-5-carboxyanilide inner salt)-based colorimetric assay (Sigma-Aldrich, St Louis, Mo.).
# [2] = tested on: recombinant NL4-3 virus (nef section replaced with Renilla luciferase gene) in MT-2 cells; assay: HIV cell culture assay (antiviral activity, luciferase readout); type: cell-based; conditions: Renilla, NL43, MT-2 cells infected for 4-5 days with recombinant NL4-3 Renilla luciferase virus
# Description: HIV cell culture assay—MT-2 cells, 293T cells and the proviral DNA clone of NL4-3 virus were obtained from the NIH AIDS Research and Reference Reagent Program. MT-2 cells were propagated in RPMI 1640 media supplemented with 10% heat inactivated fetal bovine serum (FBS), 100 jag/ml penicillin G and up to 100 units/mL streptomycin. The 293T cells were propagated in DMEM media supplemented with 10% heat inactivated FBS, 100 μg/mL penicillin G and 100 μg/mL streptomycin. A recombinant NL4-3 proviral clone, in which a section of the nef gene was replaced with the Renilla luciferase gene, was used to make the reference virus used in these studies. The recombinant virus was prepared through transfection of the recombinant NL4-3 proviral clone into 293T cells using Transit-293 Transfection Reagent from Mirus Bio LLC (Madison, Wis.). Supernatant was harvested after 2-3 days and the amount of virus present was titered in MT-2 cells using luciferase enzyme activity as a marker by measuring luciferase enzyme activity. Luciferase was quantitated using the EnduRen Live Cell Substrate from Promega (Madison, Wis.). Antiviral activities of compounds toward the recombinant virus were quantified by measuring luciferase activity in MT-2 cells infected for 4-5 days with the recombinant virus in the presence of serial dilutions of the compound.
# (Johnson V A, Byington R T. Infectivity Assay. In Techniques in HIV Research. ed. Aldovini A, Walker B D. 71-76. New York: Stockton Press. 1990).
Structure (SMILES),CC50 at 4 days [1] [nM],EC50 [2] [nM]
COc1ccc(N(C)C(=O)[C@H](Cc2ccccc2)NC(=O)NS(=O)(=O)Nc2ccccc2)cc1 [JB-4],> 100000,140
COc1ccc(N(C)C(=O)[C@H](Cc2ccccc2)NC(=O)NS(=O)(=O)N(C)c2cccc(OC)c2)cc1 [JB-34],> 100000,80
COc1ccc(N(C)C(=O)[C@H](Cc2ccccc2)NC(=O)NS(=O)(=O)Nc2ccccc2C(F)(F)F)cc1 [CA-60],> 100000,870
COc1ccc(N(C)C(=O)[C@H](Cc2ccccc2)NC(=O)NS(=O)(=O)n2ccc3c(F)c(F)c(F)c(F)c32)cc1 [JB-78],> 33300,370
COc1ccc(N(C)C(=O)[C@H](Cc2ccccc2)NC(=O)NS(=O)(=O)Nc2ccc(-c3ccccc3)cc2)cc1 [CA-29],> 33300,3260
COc1ccc(N(C)C(=O)[C@H](Cc2ccccc2)NC(=O)NS(=O)(=O)Nc2ccc3ccccc3c2)cc1 [CA-5],> 33300,180
COc1ccc(N(C)C(=O)[C@H](Cc2ccccc2)NC(=O)NS(=O)(=O)Nc2ccc(OCc3ccccc3)cc2)cc1 [CA-32],> 33300,980
COc1ccc(N(C)C(=O)[C@H](Cc2ccccc2)NC(=O)NS(=O)(=O)Nc2cccc(C(N)=O)c2)cc1 [JB-61],> 100000,4910
COc1ccc(N(C)C(=O)[C@H](Cc2ccccc2)NC(=O)NS(=O)(=O)n2c(C)cc3cc(F)c(O)cc32)cc1 [CA-65],> 100000,4040
COc1ccc(N(C)C(=O)[C@H](Cc2ccccc2)NC(=O)NS(=O)(=O)Nc2ccc(C(C)(C)C)cc2)cc1 [CA-20],> 100000,40
Cc1ncc(N(C)C(=O)[C@H](Cc2cc(F)cc(F)c2)NC(=O)NS(=O)(=O)N2CCc3cccnc32)cn1 [GW-14],> 100000,1610
COc1ccc(N(C)C(=O)[C@H](Cc2ccccc2)NC(=O)NS(=O)(=O)NC(C)c2cnn(C)c2C)cc1 (stereo partly drawn) [JB-60],> 100000,270
CC(C)N(C)S(=O)(=O)NC(=O)N[C@@H](Cc1cc(F)cc(F)c1)C(=O)N(C)c1ccc2scnc2c1 [CA-147],> 100000,80
COc1ccc(N(C)C(=O)[C@H](Cc2ccccc2)NC(=O)NS(=O)(=O)Nc2ccccc2Oc2ccccc2)cc1 [CA-33],> 33300,2040
Cc1nc2cc(N(C)C(=O)[C@H](Cc3cc(F)cc(F)c3)NC(=O)NS(=O)(=O)N3CCc4cccnc43)ccc2s1 [ZY-23],> 100000,80
CN(C(=O)[C@H](Cc1cc(F)cc(F)c1)NC(=O)NS(=O)(=O)N1CCc2cccnc21)c1ccc2c(c1)OCCO2 [ZY-24],53400,60
COc1ccc(N(C)C(=O)[C@H](Cc2ccccc2)NC(=O)NS(=O)(=O)N2CCc3cc(C)ccc32)cc1 [CA-2],> 33300,140
CCOc1ccc(N(CC)C(=O)[C@H](Cc2ccccc2)NC(=O)NS(=O)(=O)N2CCc3cc(C)ccc32)cc1 [JB-70],> 33300,100
COc1ccc(N(C)C(=O)[C@H](Cc2ccccc2)NC(=O)NS(=O)(=O)NCc2ccccc2)cc1 [JB-56],> 100000,1870
COc1ccc(N(C(=O)[C@H](Cc2cc(F)cc(F)c2)NC(=O)NS(=O)(=O)N2CCc3cccnc32)C2CC2)cc1 [BB-32],62600,50
COc1ccc(N(C)C(=O)[C@H](Cc2ccccc2)NC(=O)NS(=O)(=O)N(C)c2cccc(C)c2)cc1 [JB-25],> 100000,80
CN(C(=O)[C@H](Cc1cc(F)cc(F)c1)NC(=O)NS(=O)(=O)N(C)CCO)c1ccc2scnc2c1 [CA-125],> 100000,160
CN(C(=O)[C@H](Cc1cc(F)cc(F)c1)NC(=O)NS(=O)(=O)N1CCc2cccnc21)c1ccc2scnc2c1 [ZY-1],> 100000,10

Structure (SMILES),CC50 at 4 days [1] [nM],EC50 [2] [nM]
COc1ccc(N(C)C(=O)[C@H](Cc2ccccc2)NC(=O)NS(=O)(=O)Nc2cccc(Oc3ccccc3)c2)cc1 [CA-36],> 33300,200
CN(C(=O)[C@H](Cc1cc(F)cc(F)c1)NC(=O)NS(=O)(=O)N(C)C)c1ccc2scnc2c1 [VN-16],> 100000,30
CCN(c1ccccc1)S(=O)(=O)NC(=O)N[C@@H](Cc1cc(F)cc(F)c1)C(=O)N(C)c1ccc2scnc2c1 [ZY-9],> 100000,180
CN(C(=O)[C@H](Cc1cc(F)cc(F)c1)NC(=O)NS(=O)(=O)N1CCCc2ccccc21)c1ccc2scnc2c1 [VN-5],95900,40
COc1ccc(N(C)C(=O)[C@H](Cc2ccccc2)NC(=O)NS(=O)(=O)NC(C)c2csc(C)n2)cc1 (stereo partly drawn) [JB-64],> 100000,680
CN(C(=O)[C@H](Cc1cc(F)cc(F)c1)NC(=O)NS(=O)(=O)N(C)c1cccnc1)c1ccc2scnc2c1 [CA-120],> 100000,270
CCc1ccc(N(C)C(=O)[C@H](Cc2cc(F)cc(F)c2)NC(=O)NS(=O)(=O)N2CCc3cccnc32)cc1 [BB-2],96000,20
COc1ccc(N(C)C(=O)[C@H](Cc2ccccc2)NC(=O)NS(=O)(=O)NCc2nccn2C)cc1 [JB-63],> 100000,6500
COc1ccc(N(C)C(=O)[C@H](Cc2ccccc2)NC(=O)NS(=O)(=O)Nc2ccc(S(=O)(=O)N3CCCC3)cc2)cc1 [CA-43],> 100000,300
O=C(N[C@@H](Cc1cc(F)cc(F)c1)C(=O)N(CCOCc1ccccc1)c1ccc2scnc2c1)NS(=O)(=O)N1CCc2cccnc21 [BB-34],70600,40
Cc1cc(N(C)C(=O)[C@H](Cc2cc(F)cc(F)c2)NC(=O)NS(=O)(=O)N2CCc3cccnc32)ccc1F [BB-17],91200,70
CN(C(=O)[C@H](Cc1cc(F)cc(F)c1)NC(=O)NS(=O)(=O)N1CCOCC1)c1ccc2scnc2c1 [VN-23],> 100000,170
Cc1nc2c(F)c(N(C)C(=O)[C@H](Cc3cc(F)cc(F)c3)NC(=O)NS(=O)(=O)N3CCc4cccnc43)ccc2s1 [GW-21],> 100000,80
COc1ccc(N(C)C(=O)[C@H](Cc2ccccc2)NC(=O)NS(=O)(=O)Nc2cc(F)ccc2F)cc1 [JB-48],> 100000,170
Cc1ncc(N(C)C(=O)[C@H](Cc2cc(F)cc(F)c2)NC(=O)NS(=O)(=O)N2CCc3cccnc32)cc1Cl [GW-15],5100,970
COc1ccc(N(C)C(=O)[C@H](Cc2cc(F)cc(F)c2)NC(=O)NS(=O)(=O)N2CCC[C@H]2C(=O)N(C)C)cc1 [BB-21],> 100000,750
COc1ccc(N(C)C(=O)[C@H](Cc2ccccc2)NC(=O)NS(=O)(=O)N(C)c2ccc(Cl)cc2)cc1 [JB-35],> 100000,80
COc1ccc(N(C)C(=O)[C@H](Cc2ccccc2)NC(=O)NS(=O)(=O)NCc2ccccc2F)cc1 [JB-38],> 100000,1600
CN(C(=O)[C@H](Cc1cc(F)cc(F)c1)NC(=O)NS(=O)(=O)N1CCc2cccnc21)c1ccc(OC(F)F)cc1 [BB-35],97200,10
Cc1cnc(CNS(=O)(=O)NC(=O)N[C@@H](Cc2cc(F)cc(F)c2)C(=O)N(C)c2ccc3scnc3c2)cn1 [CA-150],> 100000,460
COc1ccc(N(C)C(=O)[C@H](Cc2ccccc2)NC(=O)NS(=O)(=O)Nc2cccc(C(C)(C)C)c2)cc1 [CA-41],> 33300,260
COc1ccccc1N(C)S(=O)(=O)NC(=O)N[C@@H](Cc1ccccc1)C(=O)N(C)c1ccc2ncccc2c1 [JB-13],> 33300,260
